{
  "source": "patent US20250229068A1",
  "about": "“ELECTROCONDUCTIVE MICRONEEDLE FOR DRUG DELIVERY INTO DEEP TISSUE” (The University of Hong Kong, priority 2024, published 2025)",
  "system": "CGRP gene expression in PC-12 cells",
  "test": "RT-qPCR of CGRP gene in PC-12 cells",
  "assay_type": "cell-based",
  "details": "miconazole and electric current together (0.5 mA, 5 mins), 24 h",
  "protocol": "PC-12 cells are cultures with 10% FBS and 1% Penicillin-Streptomycin supplemented with DMEM and incubated in a humidified incubator (37° C., 5% CO2). For the experiment, 5×10^4 cells per well are seeded on to 24 well plates and incubate for 24 hours to form a uniform monolayer. After that, miconazole nitrate ([…]) and electrical stimulation (0.5 mA, 5 mins) are given as treatment. Further, untreated cells are served as a control. After the treatment, medium is changed for electrical stimulation group and incubate for another 24 h. After that, total RNA is extracted from the treated cells using RNeasy Mini Kit (Qiagen, Hilden, Germany) and checked the purity using NanoDrop (Thermo Fisher Scientific, USA). Next, RNA is reversely transcribed into cDNA using the First Strand cDNA kit (Takara, DaLian, China). Real-time quantitative PCR reaction is performed with cDNA using TB green Premix. The mean cycle threshold (Ct) value of each target gene is normalized to the housekeeping genes (i.e., GAPDH).\nIt is hypothesized that the miconazole nitrate molecules released from the electroconductive MNs may also trigger the release of the calcitonin gene-related peptide (CGRP) from nociceptive neurons under electrical stimulation. […]",
  "data": [
    {"smiles": "Clc1ccc(COC(Cn2ccnc2)c2ccc(Cl)cc2Cl)c(Cl)c1", "note": "(stereo not shown) [miconazole, miconazole nitrate]", "values": [
      {"measurement": "increase in the expression of CGRP", "value": "~3", "unit": "fold"}
    ]}
  ]
}
